Source: ChEMBL document CHEMBL3045058, “Comparative QSAR and pharmacophore modeling of substituted 2-[2-(dimethylamino) ethyl]-1, 2-dihydro-3H-dibenz[de,h]isoquinoline-1,3-diones derivatives as anti-tumor activity” (Med Chem Res, 2013)

Tests used:
[1] = Cytotoxicity against human Ovarian cancer cells; format: functional, cell-based; settings: Cancer cell lines
[2] = Cytotoxicity against human melanoma cells; format: functional, cell-based; settings: Melanoma cell

SMILES	pIC50 [1]	pIC50 [2]
CN(C)CCN1C(=O)c2cccc3cc4cc(O)ccc4c(c23)C1=O	7.66	8.34
CC(=O)Nc1ccc2c3c4c(cccc4cc2c1)C(=O)N(CCN(C)C)C3=O	7.89	7.22
CN(C)CCN1C(=O)c2c(N)ccc3cc4ccccc4c(c23)C1=O	7.92	8.02
CN(C)CCN1C(=O)c2c(Cl)ccc3cc4ccccc4c(c23)C1=O	6.75	6.89
CN(C)CCN1C(=O)c2cccc3cc4ccc(N)cc4c(c23)C1=O	7.7	7.2
CC(=O)Nc1ccc2cc3cccc4c3c(c2c1)C(=O)N(CCN(C)C)C4=O	7.31	7.01
CN(C)CCN1C(=O)c2cccc3cc4c(N)cccc4c(c23)C1=O	5.02	4.69
CN(C)CCN1C(=O)c2cccc3cc4ccc(O)cc4c(c23)C1=O	5.72	5.92
CN(C)CCN1C(=O)c2cccc3cc4c(O)cccc4c(c23)C1=O	6.67	6.57
CN(C)CCN1C(=O)c2cccc3cc4ccc(F)cc4c(c23)C1=O	8.17	7.8
CN(C)CCN1C(=O)c2cccc3cc4c(I)cccc4c(c23)C1=O	5.68	6.08
CN(C)CCN1C(=O)c2cccc3cc4ccc(C#N)cc4c(c23)C1=O	7.92	7.96
CN(C)CCN1C(=O)c2cccc3cc4ccc(-c5ccccc5)cc4c(c23)C1=O	6.46	5.73
CN(C)CCN1C(=O)c2c(NC(=O)C(C)(C)C)ccc3cc4ccccc4c(c23)C1=O	6.18	5.06
CCOc1ccc2cc3cccc4c3c(c2c1)C(=O)N(CCN(C)C)C4=O	7.2	7.12
CN(C)CCN1C(=O)c2cccc3cc4cc(N)ccc4c(c23)C1=O	7.85	7.35
CN(C)CCN1C(=O)c2cccc3cc4cccc(N)c4c(c23)C1=O	5.76	6.02
CN(C)CCN1C(=O)c2cccc3cc4c([N+](=O)[O-])cccc4c(c23)C1=O	7.3	7.42
CN(C)CCN1C(=O)c2cccc3cc4cccc(Cl)c4c(c23)C1=O	5.05	5.69
CN(C)CCN1C(=O)c2cccc3cc4cccc([N+](=O)[O-])c4c(c23)C1=O	6.65	7.13

SMILES	pIC50 [1]	pIC50 [2]
CN(C)CCN1C(=O)c2cccc3cc4ccc(Cl)cc4c(c23)C1=O	7.11	7.19
CN(C)CCN1C(=O)c2cccc3cc4cc(Cl)ccc4c(c23)C1=O	6.64	7.05
CN(C)CCN1C(=O)c2cccc3cc4ccc(I)cc4c(c23)C1=O	6.75	6.2
COc1cccc2c3c4c(cccc4cc12)C(=O)N(CCN(C)C)C3=O	7.28	7.28
CC(=O)Nc1cccc2c3c4c(cccc4cc12)C(=O)N(CCN(C)C)C3=O	5.7	5.92
CC(=O)Nc1ccc2cc3ccccc3c3c2c1C(=O)N(CCN(C)C)C3=O	6.21	6.01
CC(=O)Nc1cccc2cc3cccc4c3c(c12)C(=O)N(CCN(C)C)C4=O	5.61	5.61
CC(C)C(=O)Nc1ccc2cc3cccc4c3c(c2c1)C(=O)N(CCN(C)C)C4=O	6.48	6.26
CN(C)CCNc1ccc2cc3ccccc3c3c2c1C(=O)N(CCN(C)C)C3=O	6.24	6.53
CN(C)CCN1C(=O)c2cccc3cc4ccc([N+](=O)[O-])cc4c(c23)C1=O	7.64	7.44
CN(C)CCN1C(=O)c2cccc3cc4c(Cl)cccc4c(c23)C1=O	7.41	7.11
Cc1ccc2cc3ccccc3c3c2c1C(=O)N(CCN(C)C)C3=O	6.91	6.75
Cc1ccc2cc3cccc4c3c(c2c1)C(=O)N(CCN(C)C)C4=O	7.17	7.09
COc1ccc2cc3ccccc3c3c2c1C(=O)N(CCN(C)C)C3=O	6.3	6.74
COc1ccc2cc3cccc4c3c(c2c1)C(=O)N(CCN(C)C)C4=O	7.11	7.28
CN(C)CCN1C(=O)c2c(O)ccc3cc4ccccc4c(c23)C1=O	4.83	5.12
CN(C)CCN1C(=O)c2cccc3cc4cccc(O)c4c(c23)C1=O	5.72	6.27
COc1ccc2c3c4c(cccc4cc2c1)C(=O)N(CCN(C)C)C3=O	6.27	6.79
CN(C)CCN1C(=O)c2cccc3cc4ccccc4c(c23)C1=O [AZONAFIDE]	7.24	7.15
